In patent US20050239751A1, “Heterocyclic anti-viral compounds comprising metabolizable moieties and their uses” (Rigel Pharmaceuticals, Inc., priority 2004, published 2005) one finds IC50 data, which are given here for 34 compounds.

pIC50: −log10 of the molar value.

One test concerns HCV replicon in 5-2 Luc replicon-comprising cells. The test is described as follows: HCV replicon assay (luciferase; HEPC_REPLICON-LUC). The settings on record: Hepatitis C virus; Tables 3-12; 50% reduction in luciferase emission, 5-2 Luc replicon cells; read-out: Replicon (IC50). It counts as cell-based, Hepatitis C virus. The source says:
In one embodiment, the inhibitory activity of the metabolically active agent of the prodrug can be confirmed in a replicon assay that assesses the ability of a test compound to block or inhibit HCV replication in replicon cells. One example of a suitable replicon assay is the liver cell-line Huh 7-based replicon assay described in Lohmann et al., 1999, Science 285:110-113. A specific example of this replicon assay which utilizes luciferase translation is provided in the Examples Section. In one embodiment of this assay, the amount of test prodrug that yields a 50% reduction in translation as compared to a control cell (IC50) may be determined.
The inhibitory activity of certain prodrugs of the invention, which may inhibit HCV translation or replication prior to metablism and/or are metabolized into active agents, was confirmed using an HCV replicon assay. The HCV replicon can include such features as the HCV 5′ untranslated region including the HCV IRES, the HCV 3′ untranslated region, selected HCV genes encoding HCV polypeptides, selectable markers, and a reporter gene such as luciferase, GFP, etc. In the assay, actively dividing 5-2 Luc replicon-comprising cells (obtained from Ralf Bartenschlager; see Lohmann et al., 1999, Science 285:110-113) were seeded at a density of between about 5,000 and 7,500 cells/well onto 96 well plates (about 90 µl of cells per well) and incubated at 37° C. and 5% CO2 for 24 hours. Then, the test prodrug (in a volume of about 10 PI) was added to the wells at various concentrations and the cells were incubated for an additional 24-48 hours before luciferase assay. The media was aspirated from each well and Bright-Glo (Promega, Madison, WI) luciferase assay reagents were added to each well according to the manufacturer's instructions. Briefly, the BrightGlo reagent was diluted 1:1 with PBS and 100 µl of diluted reagent was added to each well. After 5 min of incubation at room temperature, luciferin emission was quantified with a luminometer. In this assay, the amount of test prodrug that yielded a 50% reduction in luciferase emission (IC50) was determined. This IC50 value may represent the antiviral activity of the prodrug itself, the activity of prodrug transformed into its active metabolized form, or a combination of the two.
In TABLES 3 through 12, a value of “+” indicates an IC50 of 10 μM or less in the specified assay; a value of “−” indicates an IC50 of greater than 10 μM in the specified assay.
(Replicon systems follow genome replication, usually without infectious particles.)
By pIC50 is commonly meant −log10 of the IC50, conventionally taken in molar units. In the case of `CCC(C)OC(=O)C(Cl)(Cl)C(=O)Nc1cccc(-c2cc(-c3c(Cl)cccc3Cl)no2)c1` (stereo not shown) [Cpd. 12, 2′,2′-dichloro-2′-(sec-butoxycarbonyl)-N-[3-[3-(2,6-dichlorophenyl)-5-isoxazoyl]phenyl] acetamide], the pIC50 was not below 5.00.

Regarding `COc1cccc(Cl)c1-c1cc(-c2cccc(N(Cc3oc(=O)oc3C)C(=O)C(Cl)Cl)c2)on1` [Cpd. 31, 2,2-dichloro-N-[3′-[3′-(2′-chloro-6′-methoxyphenyl)-5′-isoxazoyl]phenyl]-N-[(5-methyl-1,3-dioxolene-2-one-4-yl)methylene] acetamide], the pIC50 is not below 5.00.

Regarding `CC(C)(C)OC(=O)C(Cl)(Cl)C(=O)Nc1ccnc(-c2cc(-c3c(Cl)cccc3Cl)no2)c1` [Cpd. 505], the pIC50 was not below 5.00.

On to `CCc1oc(=O)oc1CN(C(=O)C(Cl)Cl)c1cccc(-c2cc(-c3c(Cl)cccc3Cl)no2)c1` [Cpd. 40], for which the pIC50 was not below 5.00.

For `COC(=O)C(Cl)(Cl)C(=O)Nc1cccc(-c2cc(-c3c(F)cccc3C(F)(F)F)no2)c1` [Cpd. 30, 2′,2′-dichloro-2′-(methoxycarbonyl)-N-[3-[3-(2-fluoro-6-trifluoromethylphenyl)-5-isoxazoyl]phenyl] acetamide], the pIC50 was not below 5.00.

For the compound `CCOC(=O)c1oc(=O)oc1CN(C(=O)C(Cl)Cl)c1cccc(-c2cc(-c3c(Cl)cccc3Cl)no2)c1` [Cpd. 44], the pIC50 is less than 5.00.

On to `COc1cccc(Cl)c1-c1cc(-c2cccc(N(Cc3oc(=O)oc3C(C)C)C(=O)C(Cl)Cl)c2)on1` [Cpd. 37, 2,2-dichloro-N-[3′-[3′-(2′-chloro-6′-methoxyphenyl)-5′-isoxazoyl]phenyl]-N-[(5-isopropyl-1,3-dioxolene-2-one-4-yl)methylene] acetamide], for which the pIC50 was not below 5.00.

Turning to `CC1(C)C2CCC1(C)C(OC(=O)C(Cl)(Cl)C(=O)Nc1cccc(-c3cc(-c4c(Cl)cccc4Cl)no3)c1)C2` [Cpd. 9, 2′,2′-dichloro-2′-[(1S)-endo-borneyloxycarbonyl]-N-[3-[3-(2,6-dichlorophenyl)-5-isoxazoyl]phenyl] acetamide], the pIC50 was not below 5.00.

For `CC(C)(C)COC(=O)C(Cl)(Cl)C(=O)Nc1cccc(-c2cc(-c3c(Cl)cccc3Cl)no2)c1` [Cpd. 14], the pIC50 is not below 5.00.

Turning to `O=C(C(Cl)Cl)N(Cc1oc(=O)oc1C1CCCCC1)c1cccc(-c2cc(-c3c(Cl)cccc3Cl)no2)c1` [Cpd. 39, 2,2-dichloro-N-[3′-[3′-(2′,6′-dichlorophenyl)-5′-isoxazoyl]phenyl]-N-[(5-cyclohexyl-1,3-dioxolene-2-one4-yl)methylene] acetamide], the pIC50 is not below 5.00.

With `CCCCCc1oc(=O)oc1CN(C(=O)C(Cl)Cl)c1ccnc(-c2cc(-c3c(Cl)cccc3Cl)no2)c1` [Cpd. 43, 2,2-dichloro-N-[2′-[3′-(2′,6′-dichlorophenyl)-5′-isoxazoyl](4pyridyl)]N-[(5-n-pentyl-1,3-dioxolene-2-one4yl)methylene] acetamide], the pIC50 is not below 5.00.

On to `CC(C)OC(=O)C(Cl)(Cl)C(=O)Nc1cccc(-c2cc(-c3c(Cl)cccc3Cl)no2)c1` [Cpd. 16, 2′,2′-dichloro-2′-(isopropoxycarbonyl)-N-[3-[3-(2,6-dichlorophenyl)-5-isoxazoyl]phenyl] acetamide], for which the pIC50 is not below 5.00.

Turning to `O=C(Nc1cccc(-c2cc(-c3c(Cl)cccc3Cl)no2)c1)C(Cl)(Cl)C(=O)N1CCOCC1` [Cpd. 50], the pIC50 is not below 5.00.

Turning to `COC(=O)C(Cl)(Cl)C(=O)Nc1cccc(-c2cc(-c3c(Cl)cccc3Cl)no2)c1` [Cpd. 18], the pIC50 is not below 5.00.

With `CC(C)c1oc(=O)oc1CN(C(=O)C(Cl)Cl)c1ccnc(-c2cc(-c3c(Cl)cccc3Cl)no2)c1` [Cpd. 42, 2,2-dichloro-N-[2′-[3′-(2′,6′-dichlorophenyl)-5′-isoxazoyl](4-pyridyl)]N-[(5-i-propyl-1,3-dioxolene-2-one4-yl)methylene] acetamide], the negative-log IC50 (pIC50) was not below 5.00.

For the compound `CC(C)c1oc(=O)oc1CN(C(=O)C(Cl)Cl)c1cccc(-c2cc(-c3c(Cl)ccnc3N(C)C)no2)c1` [Cpd. 35], the pIC50 was not below 5.00.

As to `O=C(Nc1cccc(-c2cc(-c3c(N4CCOCC4)ccnc3Cl)no2)c1)C(Cl)(Cl)C(=O)OC1CCCCC1` [compound 52], the pIC50 was less than 5.00.

Take `CCOC(=O)[C@H](C)OC(=O)C(Cl)(Cl)C(=O)Nc1cccc(-c2cc(-c3c(Cl)cccc3Cl)no2)c1` [Cpd. 8, 2′,2′-dichloro-2′-(1S-ethoxycarbonyl-1-methylmethyleneoxycarbonyl)-N-[3-[3-(2,6-dichlorophenyl)-5-isoxazoyl]phenyl] acetamide]: the pIC50 is not below 5.00.

For the compound `CC(C)c1oc(=O)oc1CN(C(=O)C(Cl)Cl)c1cccc(-c2cc(-c3c(Cl)cccc3Cl)no2)c1` [Cpd. 34, 2,2-dichloro-N-[3′-[3′-(2′,6′-dichlorophenyl)-5′-isoxazoyl]phenyl]-N-[(5-isopropyl-1,3-dioxolene-2-one4-yl)methylene] acetamide], the pIC50 is not below 5.00.

As for `O=C(Nc1ccnc(-c2cc(-c3c(Cl)cccc3Cl)no2)c1)C(Cl)(Cl)C(=O)OC1CCCCC1` [compound 23], the pIC50 is not below 5.00.

Still in this test, the particulars now being: Table 15; read-out: Replicon (IC50).
Consider “2′,2′-Dichloro-N-[3-[3-(2-chloro-6-hydroxycarbonylphenyl)-5-isoxazolyl]phenyl]-N-[2-(4-fluorobenzoyl)ethyl] Acetamide [Cpd. 129a]”, for which the pIC50 is not below 5.00.

“2′,2′-Dichloro-N-[3-[3-(2,6-dichlorophenyl)-5-isoxazolyl]phenyl]-N-[2-(benzoyl)ethyl] Acetamide [Cpd. 102a]”: the pIC50 is not below 5.00.

For the compound “2′,2′-Dichloro-N-[3-[3-(2-chloro-6-methoxyphenyl)-5-isoxazolyl]phenyl]-N-[2-(4-fluorobenzoyl)ethyl] Acetamide [Cpd. 113a]”, the pIC50 is not below 5.00.

In the case of “2′,2′-Dichloro-N-[3-[3-(2,6-dichlorophenyl)-5-isoxazolyl]-4-(pyridyl)]-N-[2-(4-fluorobenzoyl)ethyl] Acetamide [126a]”, the pIC50 was not below 5.00.

As for `O=C(CCN(C(=O)C(Cl)Cl)c1cccc(-c2cc(-c3c(Cl)cccc3Cl)no2)c1)c1ccc(Cl)cc1` [Cpd. 104a, 2′,2′-Dichloro-N-[3-[3-(2,6-dichlorophenyl)-5-isoxazolyl]phenyl]-N-[2-(4-chlorobenzoyl)ethyl] Acetamide], the pIC50 is not below 5.00.

With “2′,2′-Dichloro-N-[3-[3-(2,6-dichlorophenyl)-5-isoxazolyl]phenyl]-N-[2-(4-methoxybenzoyl)ethyl] Acetamide [Cpd. 103a]”, the pIC50 is not below 5.00.

Take “2′,2′-Dichloro-N-[3-[3-[2-chloro-6-(N′-acetyl-4piperdinyloxy)phenyl]-5-isoxazolyl]phenyl]-N-[2-(4-fluorobenzoyl)ethyl] Acetamide [Cpd. 127a]”: the pIC50 is not below 5.00.

The test is the same for the next values; noted with them: Tables 3-12; 50% reduction in luciferase emission, 5-2 Luc replicon cells; read-out: Replicon (IC50).
As to “2′,2′-dichloro-2′-(diethoxyphosphonyl)-N-[3-[3-(2-fluoro-6-trifluoromethylphenyl)-5-isoxazoyl]phenyl] acetamide [Cpd. 6]”, the pIC50 is not below 5.00.

Turning to “2′-chloro-2′-(diethoxyphosphonyl)-N-[3-[3-(2,6-dichlorophenyl)-5-isoxazoyl]phenyl] acetamide [Cpd. 1]”, the pIC50 was less than 5.00.

As for “2′,2′-dichloro-2′-[(1R, 2S, 5Rkmenthyloxycarbonyl]-N-[3-[3-(2,6-dichlorophenyl)-5-isoxazoyl]phenyl] acetamide [Cpd. 11]”, the pIC50 was not below 5.00.

In the case of “2′,2′-dichloro-2′-(diisopropoxyphosphonyl)-N-[3-[3-(2,6-dichlorophenyl)-5-isoxazoyl]phenyl] acetamide [Cpd. 4]”, the pIC50 is not below 5.00.

For “2′-chloro-2′-(diethoxyphosphonyl)-2-fluoro-N-[3-[3-(2,6-dichlorophenyl)-5-isoxazoyl]phenyl] acetamide [Cpd. 2]”, the pIC50 was less than 5.00.

As to “2,2-dichloro-N-[3′-[3′-(2′-chloro-6′-tbutoxycarbonylphenyl)-5′-isoxazoyl]phenyl]-N-[(5-isopropyl-1,3-dioxolene-2-one4-yl)methylene] acetamide [Cpd. 36]”, the pIC50 was not below 5.00.

In the case of “2,2-dichloro-2-(diethoxyphosphonyl)-N-[3-[3-(2,6-dichlorophenyl)-5-isoxazoyl]phenyl] acetamide [compound 405]”, the pIC50 was not below 5.00.
